According to patent publication US20230295162A1 (EÖTVÖS LORÁND TUDOMÁNYEGYETEM, priority 2020, published 2023):
Like-named read-outs stand apart in the source and are kept apart here.

Assays:
[1] = test system: PANC-1 (human pancreatic carcinoma) cells; assay: Impedance-based viability assay (xCELLigence SP), long treatment; type: cell-based; conditions: 72 h, read-out: cytotoxicity expressed in IC50, PANC-1
From the text: (Gibco®/Invitrogen Corporation, New York, NY, USA).
Data obtained from each experiment represent mathematical averages.

[2] = test system: Panc1 pancreatic cancer cell line; assay: CellTiter-Glo IC50 (Example 19); type: cell-based; conditions: Homo sapiens, PANC-1, 72 h
Procedure, shortened: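 Cells were seeded at 1000 cells/well and kept at 37° C in 5% CO2. After compound treatment, medium was removed, CellTiter-Glo reagent added and luminescence read. Viability was expressed as % of untreated control, and IC50 came from variable-slope log(inhibitor) vs response non-linear regression.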

[3] = test system: Capan-1 (pancreas, adenocarcinoma) cells; assay: Cell viability assay, CellTiter-Glo (Example 21); type: cell-based, human; conditions: 72 h treatment
Procedure, shortened: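 Viability of Capan-1 pancreatic adenocarcinoma cells was assessed using Promega's CellTiter-Glo® luminescence kit. Cells were plated at 1000 cells/well in white, flat-bottom 96 well plates, treated, then luminescence was recorded on a BioTek Synergy 2 reader. Dose-response curves were fitted in GraphPad Prism 8.4.2 with a four-parameter variable-slope non-linear regression.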

[4] = test system: DU 145 (prostate, carcinoma) cells; assay: Cell viability assay, CellTiter-Glo (Example 21); type: cell-based, human; conditions: 72 h
Procedure, shortened: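 DU 145 prostate carcinoma cells were plated at 1000 cells/well in white flat-bottom 96 well plates and exposed to compound. Viability was then determined by CellTiter-Glo® luminescence on a BioTek Synergy 2 reader, and dose-response curves were fitted in GraphPad Prism 8.4.2 with a four-parameter variable-slope non-linear regression.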

[5] = test system: Detroit 562 (pharynx, carcinoma) cells; assay: Cell viability assay, CellTiter-Glo (Example 21); type: cell-based, human; conditions: 72 h treatment
Procedure, shortened: (§1)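 Cells were seeded at optimized densities (Panc-1 750, FaDu 1000, Detroit 562 and MDA-MB-453 1500 cells/well), then treated with compound. Viability was read by CellTiter-Glo luminescence. Dose-response curves were fitted by four-parameter variable-slope non-linear regression.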

[6] = test system: EBC-1 (lung, squamous cell carcinoma) cells; assay: Cell viability assay, CellTiter-Glo (Example 21); type: cell-based, human; conditions: 72 h treatment
Procedure, shortened: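 The CellTiter-Glo luminescent cell viability assay (Promega) was used to test compound effects on EBC-1 cells. Cells were plated at 1000 cells/well on white flat-bottom 96 well plates, treated, then read for luminescence on a microplate reader. Dose-response curves were fitted by four-parameter variable-slope non-linear regression.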

[7] = test system: FaDu (pharynx, squamous cell carcinoma) cells; assay: Cell viability assay, CellTiter-Glo (Example 21); type: cell-based, human; conditions: 72 h treatment
Procedure, shortened: as §1

[8] = test system: LNCaP (prostate, carcinoma) cells; assay: Cell viability assay, CellTiter-Glo (Example 21); type: cell-based, human; conditions: 72 h
Procedure, shortened: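 Flat-bottomed white 96 well plates received 1500 LNCaP cells per well, a density chosen to suit the cells' size and growth rate. Following compound treatment, viability was measured by CellTiter-Glo® luminescence per the manufacturer's protocol, with signal recorded on a BioTek Synergy 2 reader. GraphPad Prism 8.4.2 generated dose-response curves using a four-parameter, variable-slope non-linear regression model.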

[9] = test system: MDA-MB-231 (breast, adenocarcinoma) cells; assay: Cell viability assay, CellTiter-Glo (Example 21); type: cell-based, human; conditions: 72 h treatment
Procedure, shortened: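 Viability of MDA-MB-231 cells was quantified by luminescence using Promega's CellTiter-Glo® kit per manufacturer instructions. Cells, plated at a size- and growth-optimized density of 1500 cells/well in white flat-bottom 96 well plates, were treated and then read on a BioTek Synergy 2 reader; dose-response curves used four-parameter variable-slope non-linear regression in GraphPad Prism 8.4.2.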

[10] = test system: MDA-MB-453 (breast, carcinoma) cells; assay: Cell viability assay, CellTiter-Glo (Example 21); type: cell-based, human; conditions: 72 h treatment
Procedure, shortened: as §1

[11] = test system: MIA PaCa-2 (pancreas, carcinoma) cells; assay: Cell viability assay, CellTiter-Glo (Example 21); type: cell-based, human; conditions: 72 h treatment
Procedure, shortened: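 Cell viability of MIA PaCa-2 cells was assessed by CellTiter-Glo® luminescence (Promega, Madison, WI, USA). Cells were plated at 1000 cells/well, a density chosen for their size and growth rate, in white flat-bottomed 96 well plates. After treatment, the signal was recorded on a BioTek microplate reader, and dose-response curves were fitted in GraphPad Prism 8.4.2 with a four-parameter variable-slope non-linear regression.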

[12] = test system: PC-3 (prostate, adenocarcinoma) cells; assay: Cell viability assay, CellTiter-Glo (Example 21); type: cell-based, human; conditions: 72 h treatment
Procedure, shortened: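 Cancer cell viability was assessed by luminescence using Promega's CellTiter-Glo® kit. PC-3 cells, plated at a density of 1000 cells/well in white flat-bottom 96 well plates, were exposed to test compounds, after which signals were measured on a microplate reader and dose-response curves fitted by four-parameter variable-slope non-linear regression in GraphPad Prism 8.4.2.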

[13] = test system: Panc-1 (pancreas, carcinoma) cells; assay: Cell viability assay, CellTiter-Glo (Example 21); type: cell-based, human; conditions: 72 h treatment
Procedure, shortened: as §1

[14] = test system: SCC-25 (tongue, squamous cell carcinoma) cells; assay: Cell viability assay, CellTiter-Glo (Example 21); type: cell-based, human; conditions: 72 h treatment
Procedure, shortened: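 Cell viability of SCC-25 cells was assessed by CellTiter-Glo luminescence after compound exposure. Cells were plated at 1000 cells/well, a density chosen for their size and growth rate, on white flat-bottom 96 well plates. Signal was recorded on a microplate reader, and dose-response curves were fitted in GraphPad Prism by four-parameter variable-slope non-linear regression.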

[15] = test system: Panc-1 human cell line; assay: Cytotoxicity on Panc-1, xCELLigence SP, IC50 after 24 h, 48 h, 72 h and 96 h (Example 22)

O=C1C2=C(CCN(Cc3cc(F)cc(F)c3)C2)N2CCN=C2N1Cc1ccc(F)cc1 [I/7, 4-(4-Fluorobenzyl)-7-(3,5-difluorobenzyl)-2,4,6,7,8,9-hexahydroimidazo[1,2-a]pyrido[3,4-e]pyrimidin-5(1H)-one]
IC50 [1]: 8 nM
IC50 [2]: 11 nM
Capan-1 (pancreas, adenocarcinoma) cell viability (% of control) ([3]; 3.7 nM): 101.9 ± 3.8 % of control
Capan-1 (pancreas, adenocarcinoma) cell viability (% of control) ([3]; 11.1 nM): 46.0 ± 7.5 % of control
Capan-1 (pancreas, adenocarcinoma) cell viability (% of control) ([3]; 100 nM): 36.1 ± 2.8 % of control
Capan-1 (pancreas, adenocarcinoma) cell viability (% of control) ([3]; 300 nM): 35.5 ± 3.3 % of control
DU 145 cell viability ([4]; 3.7 nM): 64.1 ± 8.0 % of control
DU 145 cell viability ([4]; 11.1 nM): 7.5 ± 0.6 % of control
DU 145 cell viability ([4]; 100 nM): 7.2 ± 2.3 % of control
DU 145 cell viability ([4]; 300 nM): 8.5 ± 2.4 % of control
Detroit 562 (pharynx, carcinoma) cell viability (% of control) ([5]; 3.7 nM): 35.1 ± 5.8 % of control
Detroit 562 (pharynx, carcinoma) cell viability (% of control) ([5]; 11.1 nM): 28.4 ± 4.2 % of control
Detroit 562 (pharynx, carcinoma) cell viability (% of control) ([5]; 100 nM): 28.6 ± 13.6 % of control
Detroit 562 (pharynx, carcinoma) cell viability (% of control) ([5]; 300 nM): 33.0 ± 4.8 % of control
EBC-1 (lung, squamous cell carcinoma) cell viability (% of control) ([6]; 3.7 nM): 79.8 ± 4.1 % of control
EBC-1 (lung, squamous cell carcinoma) cell viability (% of control) ([6]; 11.1 nM): 25.6 ± 0.1 % of control
EBC-1 (lung, squamous cell carcinoma) cell viability (% of control) ([6]; 100 nM): 23.2 ± 0.9 % of control
EBC-1 (lung, squamous cell carcinoma) cell viability (% of control) ([6]; 300 nM): 23.8 ± 0.6 % of control
FaDu (pharynx, squamous cell carcinoma) cell viability (% of control) ([7]; 3.7 nM): 80.1 ± 13.3 % of control
FaDu (pharynx, squamous cell carcinoma) cell viability (% of control) ([7]; 11.1 nM): 29.1 ± 5.6 % of control
FaDu (pharynx, squamous cell carcinoma) cell viability (% of control) ([7]; 100 nM): 24.0 ± 3.8 % of control
FaDu (pharynx, squamous cell carcinoma) cell viability (% of control) ([7]; 300 nM): 26.1 ± 4.5 % of control
LNCaP cell viability ([8]; 3.7 nM): 45.6 ± 7.0 % of control
LNCaP cell viability ([8]; 11.1 nM): 17.2 ± 1.9 % of control
LNCaP cell viability ([8]; 100 nM): 13.1 ± 0.8 % of control
LNCaP cell viability ([8]; 300 nM): 13.9 ± 1.0 % of control
MDA-MB-231 (breast, adenocarcinoma) cell viability (% of control) ([9]; 3.7 nM): 99.6 ± 2.2 % of control
MDA-MB-231 (breast, adenocarcinoma) cell viability (% of control) ([9]; 11.1 nM): 63.6 ± 4.4 % of control
MDA-MB-231 (breast, adenocarcinoma) cell viability (% of control) ([9]; 100 nM): 58.6 ± 3.0 % of control
MDA-MB-231 (breast, adenocarcinoma) cell viability (% of control) ([9]; 300 nM): 59.4 ± 3.0 % of control
MDA-MB-453 (breast, carcinoma) cell viability (% of control) ([10]; 3.7 nM): 55.8 ± 6.5 % of control
MDA-MB-453 (breast, carcinoma) cell viability (% of control) ([10]; 11.1 nM): 35.8 ± 1.3 % of control
MDA-MB-453 (breast, carcinoma) cell viability (% of control) ([10]; 100 nM): 33.1 ± 1.1 % of control
MDA-MB-453 (breast, carcinoma) cell viability (% of control) ([10]; 300 nM): 31.6 ± 0.9 % of control
MIA PaCa-2 (pancreas, carcinoma) cell viability (% of control) ([11]; 3.7 nM): 87.4 ± 12.0 % of control
MIA PaCa-2 (pancreas, carcinoma) cell viability (% of control) ([11]; 11.1 nM): 23.1 ± 6.3 % of control
MIA PaCa-2 (pancreas, carcinoma) cell viability (% of control) ([11]; 100 nM): 18.5 ± 6.8 % of control
MIA PaCa-2 (pancreas, carcinoma) cell viability (% of control) ([11]; 300 nM): 19.8 ± 8.6 % of control
PC-3 (prostate, adenocarcinoma) cell viability (% of control) ([12]; 3.7 nM): 82.1 ± 1.6 % of control
PC-3 (prostate, adenocarcinoma) cell viability (% of control) ([12]; 11.1 nM): 38.9 ± 2.1 % of control
PC-3 (prostate, adenocarcinoma) cell viability (% of control) ([12]; 100 nM): 34.6 ± 3.0 % of control
PC-3 (prostate, adenocarcinoma) cell viability (% of control) ([12]; 300 nM): 34.3 ± 3.4 % of control
Panc-1 (pancreas, carcinoma) cell viability (% of control) ([13]; 3.7 nM): 108.6 ± 7.6 % of control
Panc-1 (pancreas, carcinoma) cell viability (% of control) ([13]; 11.1 nM): 61.1 ± 3.4 % of control
Panc-1 (pancreas, carcinoma) cell viability (% of control) ([13]; 100 nM): 60.0 ± 3.6 % of control
Panc-1 (pancreas, carcinoma) cell viability (% of control) ([13]; 300 nM): 53.5 ± 0.6 % of control
SCC-25 (tongue, squamous cell carcinoma) cell viability (% of control) ([14]; 3.7 nM): 88.7 ± 5.6 % of control
SCC-25 (tongue, squamous cell carcinoma) cell viability (% of control) ([14]; 11.1 nM): 45.1 ± 4.7 % of control
SCC-25 (tongue, squamous cell carcinoma) cell viability (% of control) ([14]; 100 nM): 35.1 ± 2.2 % of control
SCC-25 (tongue, squamous cell carcinoma) cell viability (% of control) ([14]; 300 nM): 39.7 ± 2.7 % of control
IC50 ([15]; PANC-1, 72 h, read-out: IC50 (72 h) [nM]): 27.3 ± 15.4 nM
IC50 ([15]; PANC-1, 96 h, read-out: IC50 (96 h) [nM]): 22.1 ± 5.98 nM
